# In patent US20160362408A1 (Bayer Pharma Aktiengesellschaft, priority 2013, published 2016):
# Biological target: T1, recombinant guanylate cyclase reporter cell line (Rattus norvegicus, UniProt P19686+P20595)
# T1 construct: expressed in transfected cells
# T1 sequence (P19686 1-690): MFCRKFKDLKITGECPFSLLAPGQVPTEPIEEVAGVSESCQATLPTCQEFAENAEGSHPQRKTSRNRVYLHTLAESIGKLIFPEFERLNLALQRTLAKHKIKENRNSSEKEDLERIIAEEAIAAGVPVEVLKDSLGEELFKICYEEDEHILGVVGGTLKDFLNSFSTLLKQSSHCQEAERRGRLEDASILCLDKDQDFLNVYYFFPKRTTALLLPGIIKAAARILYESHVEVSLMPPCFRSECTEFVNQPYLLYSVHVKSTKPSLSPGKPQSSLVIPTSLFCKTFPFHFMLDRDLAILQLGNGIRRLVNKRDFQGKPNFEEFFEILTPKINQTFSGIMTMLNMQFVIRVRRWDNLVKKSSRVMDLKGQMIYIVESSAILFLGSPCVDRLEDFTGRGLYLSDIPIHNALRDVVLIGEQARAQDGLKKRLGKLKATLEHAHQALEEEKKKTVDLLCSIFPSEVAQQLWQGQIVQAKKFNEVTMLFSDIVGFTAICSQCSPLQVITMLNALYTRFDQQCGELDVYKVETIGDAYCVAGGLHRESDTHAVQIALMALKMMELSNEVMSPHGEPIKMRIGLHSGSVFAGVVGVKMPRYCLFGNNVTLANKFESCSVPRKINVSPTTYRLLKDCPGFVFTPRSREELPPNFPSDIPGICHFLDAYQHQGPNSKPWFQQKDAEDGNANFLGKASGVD
# T1 sequence (P20595 1-619): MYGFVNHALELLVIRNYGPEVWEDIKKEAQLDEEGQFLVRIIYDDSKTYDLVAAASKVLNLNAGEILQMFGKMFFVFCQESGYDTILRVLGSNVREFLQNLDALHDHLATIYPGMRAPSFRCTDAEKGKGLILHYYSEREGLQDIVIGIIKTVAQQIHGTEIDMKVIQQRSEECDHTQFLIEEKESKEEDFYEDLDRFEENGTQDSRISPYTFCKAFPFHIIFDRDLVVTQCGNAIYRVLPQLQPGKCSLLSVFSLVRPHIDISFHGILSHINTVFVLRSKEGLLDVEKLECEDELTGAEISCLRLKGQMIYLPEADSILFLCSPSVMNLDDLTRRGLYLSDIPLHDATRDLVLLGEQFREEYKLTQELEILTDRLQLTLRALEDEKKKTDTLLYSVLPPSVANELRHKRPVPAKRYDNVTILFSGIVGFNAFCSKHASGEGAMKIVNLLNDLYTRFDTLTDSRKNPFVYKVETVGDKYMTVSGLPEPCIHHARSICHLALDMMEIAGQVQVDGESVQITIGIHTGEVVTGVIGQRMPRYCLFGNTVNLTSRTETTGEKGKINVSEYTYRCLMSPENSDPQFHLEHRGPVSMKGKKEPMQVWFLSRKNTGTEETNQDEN
# Assay: Effect on a recombinant guanylate cyclase reporter cell line
# Assay type: cell-based
# Details: MEC = minimum effective concentration; in some cases mean values for individual determinations
# In short: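 Compounds tested in a recombinant guanylate cyclase reporter cell line per a published method. Potency expressed as minimum effective concentration (MEC), sometimes as mean of individual determinations.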
row,SMILES,MEC [µM]
1,"CCn1nc(C)c(NC(=O)c2c(C)nc3c(OCCC(C(F)(F)F)C(F)(F)F)cc(C)cn23)c1C [Example 147, N-(1-Ethyl-3,5-dimethyl-1H-pyrazol-4-yl)-2,6-dimethyl-8-[4,4,4-trifluoro-3-(trifluoromethyl)butoxy]imidazo[1,2-a]pyridine-3-carboxamide]",3.0
2,Cc1cc(OCCC(C(F)(F)F)C(F)(F)F)c2nc(C)c(C(=O)Nc3c(C)nn(Cc4ccccc4F)c3C)n2c1 [Example 148],1.0
3,"Cc1cc(OCCC(C(F)(F)F)C(F)(F)F)c2nc(C)c(C(=O)Nc3c(C)n[nH]c3C(F)(F)F)n2c1 [Example 149, 2,6-dimethyl-N-[3-methyl-5-(trifluoromethyl)-1H-pyrazol-4-yl]-8-[4,4,4-trifluoro-3-(trifluoromethyl)butoxy]imidazo[1,2-a]pyridine-3-carboxamide]",2.0
4,"Cc1nc2c(OCC3CCCCC3)cccn2c1C(=O)Nc1cccc(CCC(=O)O)c1 [Example 150, 3-[3-({[8-(Cyclohexylmethoxy)-2-methylimidazo[1,2-a]pyridin-3-yl]carbonyl}amino)phenyl]propanoic acid]",1.0

# Continued, values first:
row,MEC [µM],SMILES
1,3.0,"Cc1cc(OCC2CC(F)(F)C2)c2nc(C)c(C(=O)Nc3c(C)n[nH]c3C(F)(F)F)n2c1 [Example 151, 8-[(3,3-Difluorocyclobutyl)methoxy]-2,6-dimethyl-N-[3-methyl-5-(trifluoromethyl)-1H-pyrazol-4-yl]imidazo[1,2-a]pyridine-3-carboxamide]"
2,1.0,"Cc1cc(OCc2c(F)cccc2F)c2nc(C)c(C(=O)Nc3cccc(S(C)(=O)=O)c3)n2c1 [Example 152, 8-[(2,6-Difluorobenzyl)oxy]-2,6-dimethyl-N-[3-(methylsulphonyl)phenyl]imidazo[1,2-a]pyridine-3-carboxamide]"
3,3.0,"Cc1cc(OCc2c(F)cccc2F)c2nc(C)c(C(=O)Nc3cccc(NS(C)(=O)=O)c3)n2c1 [Example 153, 8-[(2,6-Difluorobenzyl)oxy]-2,6-dimethyl-N-{3-[(methylsulphonyl)amino]phenyl}imidazo[1,2-a]pyridine-3-carboxamide]"
4,1.0,"Cc1nn(S(C)(=O)=O)c(C)c1NC(=O)c1c(C)nc2c(OCc3c(F)cccc3F)cccn12 [Example 154, 8-[(2,6-Difluorobenzyl)oxy]-N-[3,5-dimethyl-1-(methylsulphonyl)-1H-pyrazol-4-yl]-2-methylimidazo[1,2-a]pyridine-3-carboxamide]"
